Reference: US5736557A, “N,N-bis (quinolin-4-yl)-diamine derivatives, their preparation and their use as antimalarials” (Hoffman-La Roche, Inc., priority 1994, dated 1998)
≈ marks a conversion by molar mass, not a printed value. Like-named read-outs stand apart in the source and are kept apart here.

Key:
Plasmodium berghei = test: Activity against Plasmodium berghei in vivo in mice; design: species or system Plasmodium berghei (strain ANKA) in mice; details: for ED50: read-out: ED50 po
Method: Test Method for the Determination of the Activity Against Plasmodium berghei in vivo
The preparations are tested on mice infected with malaria pathogens (Plasmodium berghei). Male albino mice (IBM:MORO(SPF), FUELLINSDORF) weighing about 25 g are used as the test animals. They are kept in climatized rooms at 21°-22° C. in groups of 5 animals per cage. They receive ad libitum a diet feed with a low PABA content (NAFAG FUTTER .COPYRGT. No. 9009 PAB-45, PABA content 45 mg/kg) and drinking water. On the first day of the test (DO) the test animals are infected with Plasmodium berghei (strain ANKA). For this there is used heparinized blood of a donor mouse with about 30% parasitemia, which is diluted with physiological saline such that it contains 10^8 parasitized erythrocytes per ml. 0.2 ml of this suspension is injected intravenously (i.v.) into the mice to be treated and into the control mice. In untreated control animals the parasitemia normally reaches 30-40% on the third day after the infection (D+3) and the test animals die between days +5 and +7.
The substances to be tested are dissolved or suspended in distilled water or in a mixture of 7% Tween 80, 3% alcohol (96%) and water. Usually, 0.25 ml of this solution or suspension is administered once subcutaneously and perorally to groups of 5 test animals. Treatment is effected 24 hours after the infection. 10 control animals are treated in the same manner with solvent or suspension medium per test.
All substances are tested in a first test in a single dosage of 10 mg/kg. Only those substances which in this test (10 mg/kg) have shown a parasitaemia reduction of 90% are used for the titration. Suitable dilutions of the test substance can be used to obtain an accurate titration of the activity.
48 hours after the treatment (D+3) blood smears are prepared from all animals using blood from tail veins and are stained with giemsa. The average erythrocyte infection rate (parasitemiea in %) in the control groups as well as in the groups which have been treated with the test compounds is determined by counting under a microscope. The difference in the average values of the infection rates of control group (100%) and treated groups is calculated and expressed as a percentage reduction (GI%). The ED50 or ED90 is determined mathematically by means of the JMP programme (nonlinear fit). The ED50 (ED90) in mg/kg is that dose which after single administration reduces the average erythrocyte infection rate by 50% (90%) in comparison to the control group.

[1] = system: chloroquine-resistant strains of the human-pathogenic Plasmodium falciparum; test: Growth inhibition of chloroquine-resistant Plasmodium falciparum strains in vitro; type: cell-based; details: for IC50: Plasmodium falciparum; for Resistance index: ratio of average IC50 values for resistant strains and average values for sensitive strains
Method: (§1) Test Method for the Determination of the Activity Against Plasmodium falciparum in vitro
(§2) The preparations are tested on intraerythrocytary stages of Plasmodium falciparum from asynchronous cultures according to the method of Desjardin et al. (Desjardins, R. E. et al: Quantitative assessment of antimalarial activity in vitro by a semiautomated microdilution technique. Antimicrob. Agents Chemother. 16, 710-718, (1979)).
(§3) The culture medium consists of RPMI 1640 with the addition of 25 mM HEPES, 25 mM NaHCO3, 100 μg/ml neomycin and […] (A^+). Human-A^+ erythrocytes are used as the Plasmodium falciparum host cells. The parasites are maintained at 37° C. in an atmosphere of 3% O2, 4% CO2, 9:3% N2 and 95% relative humidity.
(§4) In order to determine the activity, the preparations are dissolved in dimethyl sulphoxide, pre-diluted in the culture medium to a suitable starting concentration and subsequently titrated-out on to microtitre plates in the 2nd stage over 6-7 steps. After the addition of the parasite culture (0.7% parasitemia in 2.5% erythrocyte suspension) the test plates are incubated under the conditions given above for 48 h-72 h. The parasite growth in the different preparation concentrations is determined using [G--^3 H]-hypoxanthin incorporation compared to untreated control cultures on the same test plates. The 50% growth inhibition (IC50) is calculated according to logit regression analysis from the resulting dosage-activity curve.
(§5) The preparations are tested on at least one chloroquine-resistant and one chloroquine-sensitive Plasmodium falciparum strain. Additional sensitive and resistant strains are included for futher characterization.

[2] = system: chloroquine-sensitive strains of the human-pathogenenic Plasmodium falciparum; test: Growth inhibition of chloroquine-sensitive Plasmodium falciparum strains in vitro; type: cell-based
Method: as §1, §2, §3, §4, §5

[3] = po, percentage parasitemia reduction, single peroral dose 10 mg/kg, mice, read-out: GI % at 10 mg/kg po
[4] = sc, percentage parasitemia reduction, single subcutaneous dose 10 mg/kg, mice, read-out: GI % at 10 mg/kg sc
[5] = read-out: IC50 growth inhibition, strain K1, chloroquine-resistant
[6] = NF54, strain NF54, chloroquine-sensitive, read-out: IC50 growth inhibition
[7] = read-out: IC50 growth inhibition, strain 7G8, chloroquine-resistant
[8] = read-out: IC50 growth inhibition, strain Indo, chloroquine-resistant
[9] = read-out: IC50 growth inhibition, strain ItG2F6, chloroquine-resistant
[10] = read-out: IC50 growth inhibition, strain RFCF3, chloroquine-resistant
[11] = read-out: IC50 growth inhibition, strain W2 Mef, chloroquine-resistant
[12] = NF54, read-out: IC50 growth inhibition, strain NF54, chloroquine-sensitive
[13] = read-out: IC50 growth inhibition, strain RFMEF3, chloroquine-sensitive
[14] = read-out: IC50 growth inhibition, strain Ro73, chloroquine-sensitive
[15] = read-out: IC50 growth inhibition, strain W2, chloroquine-resistant
[16] = HB3, strain HB3, chloroquine-sensitive, read-out: IC50 growth inhibition
[17] = strain FCH5C2, chloroquine-sensitive, read-out: IC50 growth inhibition
[18] = strain RFMEF3, chloroquine-sensitive, read-out: IC50 growth inhibition
[19] = strain Ro73, chloroquine-sensitive, read-out: IC50 growth inhibition
[20] = po, single peroral administration, mice

Row | SMILES | inhibition in vivo at 10 mg/kg (Plasmodium berghei; [3]) [%] | inhibition in vivo at 10 mg/kg (Plasmodium berghei; [4]) [%] | IC50 [1, 5] [ng/mL] | IC50 [2, 6] [ng/mL] | IC50 [1, 7] [ng/mL] | IC50 [1, 8] [ng/mL] | IC50 [1, 9] [ng/mL] | IC50 [1, 10] [ng/mL] | IC50 [1, 11] [ng/mL] | Resistance index [1] | IC50 [1, 15] [ng/mL] | IC50 [2, 16] [ng/mL] | IC50 [2, 17] [ng/mL] | IC50 [2, 18] [ng/mL] | IC50 [2, 19] [ng/mL] | other results
1 | Clc1ccc2c(N[C@H]3CCC[C@H](Nc4ccnc5cc(Cl)ccc45)C3)ccnc2c1 (relative stereo) [Example 7, ±-trans-N,N'-Bis-(7-chloroquinolin-4-yl)-cyclohexane-1,3-diamine] | 97 | 99 | 10.5 (≈ 0.024 µM) | 10.7 (≈ 0.0245 µM) |  |  |  |  |  |  |  |  |  |  |  | 
2 | CCN(CC)CCCC(C)Nc1ccnc2cc(Cl)ccc12 (stereo not shown) [Chloroquine, reference compound] |  |  | 114 (≈ 0.356 µM) |  | 81 (≈ 0.253 µM) | 52 (≈ 0.163 µM) | 68 (≈ 0.213 µM) | 130 (≈ 0.406 µM) | 79 (≈ 0.247 µM) | 8.7 |  |  |  |  |  | ED50 (Plasmodium berghei; po): 2 mg/kg; inhibition in vivo at 10 mg/kg (Plasmodium berghei; po, read-out: GI % at 10 mg/kg po): 99.9%; inhibition in vivo at 10 mg/kg (Plasmodium berghei; sc, read-out: GI % at 10 mg/kg sc): 99.9%; IC50 ([2]; HB3, read-out: IC50 growth inhibition, strain HB3, chloroquine-sensitive): 11.3 ng/mL (≈ 0.0353 µM); IC50 [2, 12]: 7.6 ng/mL (≈ 0.0238 µM); IC50 ([2]; read-out: IC50 growth inhibition, strain FCH5C2, chloroquine-sensitive): 12.2 ng/mL (≈ 0.0381 µM); IC50 [2, 13]: 14.2 ng/mL (≈ 0.0444 µM); IC50 [2, 14]: 8 ng/mL (≈ 0.025 µM)
3 | Clc1ccc2c(NCc3ccccc3CNc3ccnc4cc(Cl)ccc34)ccnc2c1 [Example 1, (7-Chloroquinolin-4-yl)-[2-(7-chloroquinolin-4-yl-aminomethyl)-benzyl]-amin] | 62 | 97 | 6.9 (≈ 0.015 µM) | 10.2 (≈ 0.0222 µM) | 7 (≈ 0.0152 µM) | 6.9 (≈ 0.015 µM) | 4.7 (≈ 0.0102 µM) | 5.4 (≈ 0.0118 µM) | 4.9 (≈ 0.0107 µM) | 0.9 | 5.8 (≈ 0.0126 µM) | 7.5 (≈ 0.0163 µM) | 6.6 (≈ 0.0144 µM) | 6.5 (≈ 0.0141 µM) | 3.6 (≈ 0.00784 µM) | 
4 | Clc1ccc2c(NCc3cccc(CNc4ccnc5cc(Cl)ccc45)c3)ccnc2c1 [Example 2, (7-Chloroquinolin-4-yl)-[3-(7-chloroquinolin-4-yl-aminomethyl)-benzyl]-amine] | 87 | 99 | 17 (≈ 0.037 µM) | 10.3 (≈ 0.0224 µM) | 13.9 (≈ 0.0303 µM) | 15.8 (≈ 0.0344 µM) | 19 (≈ 0.0414 µM) | 26.3 (≈ 0.0573 µM) | 17 (≈ 0.037 µM) | 2.8 | 100 (≈ 0.218 µM) | 8.9 (≈ 0.0194 µM) | 12.5 (≈ 0.0272 µM) | 7.8 (≈ 0.017 µM) | 13.3 (≈ 0.029 µM) | 
5 | Clc1ccc2c(NCc3ccc(CNc4ccnc5cc(Cl)ccc45)cc3)ccnc2c1 [Example 3, (7-Chloroquinolin-4-yl)-[4-(7-chloroquinolin-4-yl-aminomethyl)-benzyl]-amine] | 99.9 | 99.9 | 9.1 (≈ 0.0198 µM) | 9.6 (≈ 0.0209 µM) | 6.8 (≈ 0.0148 µM) | 2.9 (≈ 0.00631 µM) | 7.9 (≈ 0.0172 µM) | 5.7 (≈ 0.0124 µM) | 9.7 (≈ 0.0211 µM) | 0.7 | 5 (≈ 0.0109 µM) | 4.6 (≈ 0.01 µM) | 12.7 (≈ 0.0276 µM) | 12.5 (≈ 0.0272 µM) | 7.4 (≈ 0.0161 µM) | ED50 (Plasmodium berghei; [20]): 2.5 mg/kg
6 | Clc1ccc2c(N[C@H]3CC[C@H](Nc4ccnc5cc(Cl)ccc45)CC3)ccnc2c1 [Example 4, ±-trans-N,N'-Bis-(7-chloroquinolin-4-yl)-cyclohexane-1,4-diamine] | 73 | 37 | 11.6 (≈ 0.0265 µM) | 7.2 (≈ 0.0165 µM) | 2.8 (≈ 0.0064 µM) | 6 (≈ 0.0137 µM) | 5.3 (≈ 0.0121 µM) | 9.5 (≈ 0.0217 µM) | 7 (≈ 0.016 µM) | 2.1 | 13.1 (≈ 0.03 µM) | 3.3 (≈ 0.00755 µM) | 3.6 (≈ 0.00823 µM) | 3.3 (≈ 0.00755 µM) | 1.6 (≈ 0.00366 µM) | 
7 | Clc1ccc2c(N[C@H]3CC[C@@H](Nc4ccnc5cc(Cl)ccc45)CC3)ccnc2c1 [Example 5, cis-N,N'-Bis-(7-chloroquinolin-4-yl)-cyclohexane-1,4-diamine] | 98 | 99.9 | 7.7 (≈ 0.0176 µM) | 2.6 (≈ 0.00594 µM) | 9 (≈ 0.0206 µM) | 4.4 (≈ 0.0101 µM) | 6.8 (≈ 0.0155 µM) | 5.1 (≈ 0.0117 µM) | 6.5 (≈ 0.0149 µM) | 2.1 | 4.8 (≈ 0.011 µM) | 3.2 (≈ 0.00732 µM) | 3.9 (≈ 0.00892 µM) | 3.4 (≈ 0.00777 µM) | 2.3 (≈ 0.00526 µM) | ED50 (Plasmodium berghei; [20]): 1.5 mg/kg
8 | Clc1ccc2c(N[C@@H]3CCC[C@H](Nc4ccnc5cc(Cl)ccc45)C3)ccnc2c1 [Example 6, cis-N,N'-Bis-(7-chloroquinolin-4-yl)-cyclohexane-1,3-diamine] | 98 | 99.9 | 4.4 (≈ 0.0101 µM) |  | 3.8 (≈ 0.00869 µM) | 3 (≈ 0.00686 µM) | 4.1 (≈ 0.00937 µM) | 4.2 (≈ 0.0096 µM) | 7.6 (≈ 0.0174 µM) | 1.0 | 4 (≈ 0.00915 µM) | 5.2 (≈ 0.0119 µM) | 6.4 (≈ 0.0146 µM) | 4.8 (≈ 0.011 µM) |  | ED50 (Plasmodium berghei; [20]): 1.7 mg/kg; IC50 [2, 12]: 3.8 ng/mL (≈ 0.00869 µM); IC50 [2, 14]: 3 ng/mL (≈ 0.00686 µM)
9 | C[C@H]1[C@@H](Nc2ccnc3cc(Cl)ccc23)CCC[C@H]1Nc1ccnc2cc(Cl)ccc12 [Example 8, cis,cis-N,N'-Bis-(7-chloroquinolin-4-yl)-2-methyl-cyclohexane-1,3-diamine] | 66 | 67 | 8.8 (≈ 0.0195 µM) | 7.7 (≈ 0.0171 µM) | 9.4 (≈ 0.0208 µM) | 6.4 (≈ 0.0142 µM) | 6.4 (≈ 0.0142 µM) | 4.6 (≈ 0.0102 µM) | 9.1 (≈ 0.0202 µM) | 1.3 | 5.6 (≈ 0.0124 µM) | 6.1 (≈ 0.0135 µM) | 6.1 (≈ 0.0135 µM) | 6.3 (≈ 0.014 µM) | 1.6 (≈ 0.00354 µM) | 
10 | Clc1ccc2c(NC3CCC(CC4CCC(Nc5ccnc6cc(Cl)ccc56)CC4)CC3)ccnc2c1 (stereo not shown) [Example 12, N,N'-Bis-(7-chloroquinolin-4-yl)-dicyclohexylmethane-4,4'-diamine] |  |  | 13 (≈ 0.0244 µM) | 11.6 (≈ 0.0217 µM) | 17.1 (≈ 0.032 µM) | 13.7 (≈ 0.0257 µM) | 13.3 (≈ 0.0249 µM) | 7.2 (≈ 0.0135 µM) | 21.6 (≈ 0.0405 µM) | 0.9 | 25 (≈ 0.0469 µM) | 26.3 (≈ 0.0493 µM) | 19.4 (≈ 0.0364 µM) |  | 17.8 (≈ 0.0334 µM) | IC50 [2, 13]: 13.7 ng/mL (≈ 0.0257 µM)
11 | Clc1ccc2c(NC/C=C/CNc3ccnc4cc(Cl)ccc34)ccnc2c1 [Example 13, N,N'-Bis-(7-chloroquinolin-4-yl)-2-butene-1,4-diamine] |  |  | 18.1 (≈ 0.0442 µM) | 30.8 (≈ 0.0752 µM) |  |  |  |  |  |  |  |  |  |  |  | 
